Test results as given in patent US4610976A, “Porcine GRF” (The Salk Institute for Biological Studies, priority 1983, dated 1986).

System: cells of rat pituitary glands
Assay: in vitro growth hormone release assay in rat pituitary cell monolayer cultures (ir GH by radioimmunoassay)
Type: cell-based
Settings: equimolar concentrations, side-by-side with synthetic hGRF(1-44)-NH2; incubation 3 to 4 hours; ir GH in culture medium
Experimental: To determine the effectiveness of the peptide to promote the release of growth hormone, in vitro assays are carried out using synthetic hGRF(1-44)-NH2 in side-by-side comparison with equimolar concentrations of the extracted and purified pGRF(1-44) of Example II and of a GRF Reference Standard having a known effectiveness to promote the release of growth hormone from pituitary cells. The GRF Reference standard is described and defined in Brazeau, et al., Endocrinology, Vol. 110, A538(1982) and is an amount of a preparation of rat hypothalamic origin that produces a half-maximal response in terms of GH release in a pituitary cell monolayer bioassay. Cultures are used which include cells of rat pituitary glands removed some four to five days previously. Both cultures of a defined standard medium and cultures which are considered optimal for the secretion of growth hormone are used for the comparative testing, in the general manner described in Brazeau, et al. Regulatory Peptides, 1, 255, 1981. Incubation with the substance to be tested is carried out for 3 to 4 hours, and aliquots of the culture medium are removed and processed to measure their contents in inmunoreactive GH(ir GH) by a well-characterized radioimmunoassay.

Tyr-Ala-Asp-Ala-Ile-Phe-Thr-Asn-Ser-Tyr-Arg-Lys-Val-Leu-Gly-Gln-Leu-Ser-Ala-Arg-Lys-Leu-Leu-Gln-Asp-Ile-Met-Ser-Arg-Gln-Gln-Gly-Glu-Arg-Asn-Gln-Glu-Gln-Gly-Ala-Arg-Val-Arg-Leu (YADAIFTNSYRKVLGQLSARKLLQDIMSRQQGERNQEQGARVRL; printed: Tyr-Ala-Asp-Ala-Ile-Phe-Thr-Asn-Ser-Tyr-Arg-Lys-Val-Leu-Gly-Gln-Leu-Ser-Ala-Arg-Lys-Leu-Leu-Gln-Asp-Ile-Met-Ser-Arg-Gln-Gln-Gly-Glu-Arg-Asn-Gln-Glu-Gln-Gly-Ala-Arg-Val-Arg-Leu) [pGRF(1-44), 44-residue polypeptide isolated from purified extracts of porcine hypothalami]
intrinsic biological activity to promote the release of growth hormone, compared with synthetic hGRF(1-44)-NH2: full intrinsic biological activity of the synthetic peptide | potency to promote the release of growth hormone, compared with synthetic hGRF(1-44)-NH2: close to the same potency
